Here are results for 1 molecule from US11613544B2, “Substituted imidazo[1,5-a]pyrazines for modulation of IRE1” (THE REGENTS OF THE UNIVERSITY OF CALIFORNIA, priority 2012, dated 2023).

The target of assay [1] is T1, IRE1α* (Homo sapiens, UniProt O75460). Conditions: in vitro.
The target of assay [2] is T1, IRE1α*. Description: IRE1α* autophosphorylation kinase assay ([γ-32P]ATP, autoradiography). The following applies: in vitro.
Description: Inhibitors (initial concentration=80 μM, 2-fold serial dilutions) were incubated with IRE1α in cleavage buffer (20 mM Hepes at pH 7.5, 0.05% Triton X100, 50 mM KOAC, 1 mM Mg(OAC)2, 1 mM DTT) for 20 min, followed by incubation with 10 μCi [γ-^32P]ATP (3000 Ci/mmol, Perkin Elmer) at RT for 30 min. Samples were then separated by SDS-PAGE, and autoradiographed. The auto-phosphorylation level were quantified by setting the band intensity of IRE1α* without compound treatment as 1 and the background as 0.
In assay [3] the target is T1, IRE1α*. As to the kind of experiment: IRE1α* DSS cross-linking to determine oligomer to monomer ratio. The following applies: saturating compound (200 μM), DSS 250 μM.
Description: The reaction was quenched by addition of 50 mM Tris-HCl (pH 7.5). The samples were then boiled, resolved on SDS-PAGE, and immunoblotted for IRE1α with an anti-IRE1α antibody, (visualization and quantification with a LI-COR Odyssey scanner).
The target in another assay is Src (Homo sapiens, UniProt P12931). As to the kind of experiment: Kinase panel counter-screen. It is filed as biochemical. Conditions: tested against 12 kinases of the panel. Background: Counterscreens check selectivity or assay interference.
Another assay has as its system retinal photoreceptors. Description: Intravitreal injection in rat models of retinal degeneration (tunicamycin; P23H rhodopsin). In kind it is in vivo. On the procedure:
Based on known rat vitreous volumes, 2 μl was injected intravitreally into each eye. Tm ([…] final concentration) plus/minus KIRA6 (10 μM final concentration) was injected into SD rats at P21 with an equivalent amount of DMSO as a vehicle control. Retinas were collected at 48 and 72 hrs after injections in Trizol (Invitrogen) for qPCR analysis. Eyes were examined by optical coherence tomography (OCT) 7 days post injection and subsequently collected for morphological analysis. […]
Mice were anaesthetized with 1.5-3% isoflurane, eyes were dilated with 2.5% phenylephrine hydrochloride and 1% tropicamide, and corneas were kept moist with regular application of 2.5% methylcellulose. Eyes were examined using a Micron III retinal imaging system (Phoenix Research Labs). Spectral domain OCT images were acquired with a Micron Image Guided OCT System (Phoenix Research Labs) by averaging 10 to 50 scans.
Outer nuclear layers (ONL) were quantified as previously described (Lewin, A. S. et al., Nature medicine 4, 967-971 (1998)). Briefly, rats were euthanized by CO2 inhalation and their eyes were immediately enucleated and immersed in 2% paraformaldehyde and 2.5% glutaraldehyde in phosphate buffered saline. […] ONL thickness was measured at 54 locations around the retina using Bioquant image analysis (Bioquant; R&M Biometrics).

Another assay deals with Abl (Homo sapiens, UniProt P00519). As to the kind of experiment: Kinase panel counter-screen. In kind it is biochemical. Conditions: tested against 12 kinases of the panel.
The subject of assay [4] is mouse embryonic fibroblasts (MEFs). As to the kind of experiment: Cytoprotection in mouse embryonic fibroblasts. It is filed as cell-based.
Another assay concerns INS-1 cells. Description: Terminal UPR endpoints and apoptosis in cells under ER stress. It is filed as cell-based, rat. An excerpt:
Using rat insulinoma (INS-1) cells that have a well-developed ER and secrete insulin, the duration and magnitude of ER stress that triggers apoptosis were quantified. Two variables-concentration of ER stress inducer (e.g. Thapsigargin-Tg) and time of exposure to the agent—are directly linked to the percentage of cells entering apoptosis (FIG. 28, A and B). Such regimes can be defined for other ER stress inducers such as the glycosylation inhibitor, tunicamycin (Tm) (FIG. 28,C). Increasing ER stress causes progressive increases in endogenous IRE1α phosphorylation, increases in XBP1 mRNA splicing (FIG. 28, E), depletion through endonucleolytic decay of the ER-localized mRNA, Ins1, which encodes proinsulin (FIG. 28, F), and induction of the pro-apoptotic transcription factor, CHOP (FIG. 28, G).
KIRAs break high-order oligomerization of IRE1α kinase domains, attenuate RNAse activity, and reduce entry of cells into the Terminal UPR.
A model of KIRA6-mediated cytoprotection is shown (FIG. 30, J); it posits that the type II kinase inhibitor, KIRA6, reduces kinase/RNAse homo-oligomerization on the cytosolic face of IRE1α, which consequently reduces RNase hyperactivity under ER stress, preventing pro-apoptotic ER-localized mRNA decay and granting cells extended reprieve from programmed cell death.

In another assay the target is T2, IRE1α* (WT) (Homo sapiens, UniProt O75460).
T2 construct: 6-His-tag (N); made in house; host or cells: SF9 insect cells (Bac-to-Bac baculovirus)
Description: In vitro cleavage of pre-miR-17 by IRE1α*. In kind it is biochemical. The source says: FIG. 31. […] Sequence legend (FIG. 31B): SEQ ID NOs:11-15 (in order top to bottom); (FIG. 31C): SEQ ID NO:16.
Described herein is the characterization of four select miRs that decay in vivo upon IRE1α hyperactivation. These are miR-17, miR-34a, miR-96, and miR-125b. WT-IRE1α directly cleaved pre-miR-17 in vitro at sites distinct from those cleaved by DICER, as mapped by primer extension. The scission sites of pre-miR-17 are identical to those of XBP1 mRNA—(G/C)—and diverge at the flanking regions. Thus, by reducing levels of pre-miRs, IRE1α antagonizes DICER action to reduce cellular levels of the corresponding mature miRs. Intriguingly, IRE1α* (I642G), which can be activated by 1NM-PP1 to cleave XBP1 mRNA in vitro, can also cleave pre-miR-17 under 1NM-PP1. An RNAse mutant, IRE1α* (N906A), is compromised for cleavage of pre-miR-17 (FIG. 31, A-C). […] As IRE1α homo-oligomerizes in the ER membrane in proportion to the concentration of unfolded proteins in the ER lumen, it progressively trans-autophosphorylates. Furthermore, salt bridges between phospho-amino acid groups and other residues reinforce higher-order homo-oligomerization of kinase/RNAse domains, as was shown using yeast IRE1. Thus, as IRE1α protein clusters into higher-order oligomers, it acquires increasing activity towards its RNA substrates. […]

In assay [5] the test system is pancreatic islets from C57BL/6 mice. Description: Pancreatic islets treated with ER stress inducer (Tm). In kind it is cell-based, mouse. On the procedure: FIG. 30. KIRA6 inhibits IRE1α autophosphorylation, breaks oligomers, reduces RNase activity, and protects cells from entry into apoptosis. (A) Structure of KIRA6. (B) RNase activities of IRE1α* under varying [KIRA6]; half-maximum effective concentration (EC50) values were determined by fitting normalized fluorescence intensities (mean±s.d., n=3). (C) Inhibition of IRE1α* kinase activity in vitro by KIRA6; IC50 values were determined by fitting percent phosphorylation. […] (E) Immunoblots of IRE1α* (WT) incubated with DMSO or KIRA6 (200 μM) followed by treatment with the crosslinker DSS (250 μM); quantification is on the right. (F) Agarose gel of XBP1 cDNA amplicons from INS-1 cells pre-treated with indicated concentrations of KIRA6 for 1 h, followed by 0.5 μg/ml Tm for 8 h. […] (H) KIRAs reduce entry of INS1-1 cells into apoptosis. (I) Immunofluorescence of islets from 10 wk old C57BL/6 mice treated with 0.5 μg/mL Tm plus/minus 0.5 μM KIRA6 for 16 hr. Co-stained for DAPI, insulin, and TUNEL; Quantification of TUNEL positive β-cells (white arrows) normalized to DAPI-positive cells is shown. […] (K) Model of how KIRA6 prevents the terminal UPR by inhibiting IRE1α. […]

SMILES strings stand for the structures. Entries after “also recorded” stand apart in the source; their conditions may differ.

T1 sequence (O75460 with tags, fused parts or gaps): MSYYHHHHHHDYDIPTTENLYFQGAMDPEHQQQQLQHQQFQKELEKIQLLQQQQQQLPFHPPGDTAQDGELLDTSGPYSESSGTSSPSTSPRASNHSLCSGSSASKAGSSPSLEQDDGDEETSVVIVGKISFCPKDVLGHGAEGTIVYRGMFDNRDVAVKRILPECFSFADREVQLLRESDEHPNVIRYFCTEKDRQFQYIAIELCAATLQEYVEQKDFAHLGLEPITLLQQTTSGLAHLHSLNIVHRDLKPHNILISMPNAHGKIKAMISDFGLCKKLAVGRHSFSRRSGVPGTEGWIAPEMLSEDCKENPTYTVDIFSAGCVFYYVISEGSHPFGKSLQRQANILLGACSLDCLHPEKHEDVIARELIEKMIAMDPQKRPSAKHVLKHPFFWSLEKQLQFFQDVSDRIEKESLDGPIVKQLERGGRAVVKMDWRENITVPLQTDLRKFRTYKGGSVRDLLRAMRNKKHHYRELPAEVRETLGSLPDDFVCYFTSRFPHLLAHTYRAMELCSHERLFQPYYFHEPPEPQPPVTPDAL
T2 sequence (O75460 with tags, fused parts or gaps): as above
Chain of Src (P12931 whole entry, species assumed): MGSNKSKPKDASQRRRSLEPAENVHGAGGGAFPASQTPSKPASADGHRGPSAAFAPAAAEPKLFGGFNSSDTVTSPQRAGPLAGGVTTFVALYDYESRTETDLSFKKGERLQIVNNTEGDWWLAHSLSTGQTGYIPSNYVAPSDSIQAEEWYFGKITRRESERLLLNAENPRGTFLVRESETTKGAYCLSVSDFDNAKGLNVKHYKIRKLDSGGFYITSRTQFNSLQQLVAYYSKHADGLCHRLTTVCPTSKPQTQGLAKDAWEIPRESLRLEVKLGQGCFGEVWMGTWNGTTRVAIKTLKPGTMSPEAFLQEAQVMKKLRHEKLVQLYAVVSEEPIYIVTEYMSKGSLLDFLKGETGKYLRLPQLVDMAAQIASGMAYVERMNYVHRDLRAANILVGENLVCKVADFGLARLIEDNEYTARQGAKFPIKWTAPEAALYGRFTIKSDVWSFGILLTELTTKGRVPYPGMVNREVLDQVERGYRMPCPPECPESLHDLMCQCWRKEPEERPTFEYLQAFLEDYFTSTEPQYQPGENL
Chain of Abl (P00519 whole entry, species assumed): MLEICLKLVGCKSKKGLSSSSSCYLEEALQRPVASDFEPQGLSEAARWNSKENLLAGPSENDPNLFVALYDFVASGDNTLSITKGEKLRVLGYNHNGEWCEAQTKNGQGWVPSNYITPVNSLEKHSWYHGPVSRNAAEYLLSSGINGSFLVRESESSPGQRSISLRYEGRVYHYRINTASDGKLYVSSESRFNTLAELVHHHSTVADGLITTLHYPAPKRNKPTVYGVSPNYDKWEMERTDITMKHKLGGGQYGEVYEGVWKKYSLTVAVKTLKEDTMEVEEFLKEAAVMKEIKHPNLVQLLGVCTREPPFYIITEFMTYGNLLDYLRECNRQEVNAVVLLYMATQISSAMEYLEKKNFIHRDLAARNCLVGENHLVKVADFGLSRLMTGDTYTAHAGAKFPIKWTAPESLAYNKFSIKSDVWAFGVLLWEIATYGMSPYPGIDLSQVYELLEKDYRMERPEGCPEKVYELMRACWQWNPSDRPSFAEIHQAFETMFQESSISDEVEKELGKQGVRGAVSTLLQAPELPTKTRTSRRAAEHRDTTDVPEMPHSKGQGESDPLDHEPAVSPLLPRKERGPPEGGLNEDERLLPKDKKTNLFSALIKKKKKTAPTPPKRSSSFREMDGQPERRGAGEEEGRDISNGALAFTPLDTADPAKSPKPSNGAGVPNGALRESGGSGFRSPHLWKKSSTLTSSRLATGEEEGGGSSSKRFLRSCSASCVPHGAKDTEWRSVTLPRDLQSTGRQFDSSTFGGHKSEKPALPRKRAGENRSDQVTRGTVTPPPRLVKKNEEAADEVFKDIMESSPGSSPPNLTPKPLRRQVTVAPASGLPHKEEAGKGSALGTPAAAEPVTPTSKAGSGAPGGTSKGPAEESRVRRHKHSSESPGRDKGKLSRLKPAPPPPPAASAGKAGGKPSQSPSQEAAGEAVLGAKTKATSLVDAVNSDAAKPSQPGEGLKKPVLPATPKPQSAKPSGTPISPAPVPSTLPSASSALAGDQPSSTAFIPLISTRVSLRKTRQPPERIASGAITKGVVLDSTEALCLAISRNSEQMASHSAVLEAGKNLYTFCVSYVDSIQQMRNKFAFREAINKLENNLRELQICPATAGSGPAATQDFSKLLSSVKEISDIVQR

For the molecule `CC(C)(C)c1nc(-c2ccc(NC(=O)Nc3cccc(C(F)(F)F)c3)c3ccccc23)c2c(N)nccn12` [KIRA6, 1-(4-(8-amino-3-tert-butylimidazo[1,5-a]pyrazin-1-yl)naphthalen-1-yl)-3-(3-(trifluoromethyl)phenyl)urea], the “modulation of IRE1α* RNase activity (XBP1 RNA cleavage)” value on IRE1α* [1] was “inhibits IRE1α* RNase and kinase activities with similar IC50s; also recorded: dose-dependently reduces kinase autophosphorylation and XBP1 splicing activity”. The “inhibition of IRE1α* autophosphorylation” value against IRE1α* [2] was “dose-dependently reduces kinase autophosphorylation”. For the same molecule, the “IRE1α* oligomer/monomer ratio (oligomerization state)” value on IRE1α* [3] was “stabilizes the monomeric state; also recorded: reduces concentration-dependent oligomerization”. Moreover, the off-target kinase inhibition entry on Src and on Abl was “off-target inhibition observed” in each case. Besides, the “outer nuclear layer (ONL) thickness vs DMSO” value with retinal photoreceptors (P23H-1 rats at P30, intravitreal 10 μM) is “higher thickness”. Further, the “photoreceptor loss / viability and function” value with retinal photoreceptors (intravitreal, rat models of retinal degeneration caused by ER stress) is “protects viability and preserves function of retinal photoreceptors; also recorded: prevents photoreceptor loss”. Besides, the “endogenous IRE1α-mediated XBP1 mRNA splicing” value in the assay on endogenous IRE1α (INS-1, provoked by Tm) is “inhibits endogenous IRE1α-mediated XBP1 mRNA splicing”. Besides, the “endogenous IRE1α auto-phosphorylation” value in the assay on endogenous IRE1α (in vivo (cells), FIG. 30D) is on record as “inhibits endogenous IRE1α auto-phosphorylation in a dose-dependent manner”. Besides, the cytoprotective effects result is recorded as “absent” in assay [4] (Ire1α−/− MEFs); “still demonstrable” in assay [4] (WT and Xbp1−/− MEFs). In the assay on INS-1 cells (ER stress), the “ER-localized endonucleolytic decay of Ins1 mRNA” value is “inhibits ER-localized endonucleolytic decay of Ins1 mRNA at lower doses of the drug than needed to inhibit XBP1 mRNA splicing”. Also, the “caspase 2 accumulation and cleavage” value in the assay with INS-1 cells (FIG. 31F) was “reduces caspase 2 accumulation and cleavage”. Also, the “mature miR-17 levels” value with INS-1 cells (in vivo (cells), FIG. 31E) is reported as “rescues mature miR-17 levels”. The “terminal UPR endpoints / entry into apoptosis” value in the assay with INS-1 cells (pre-treatment before ER stress inducers) is “all these terminal UPR endpoints are curtailed”. For the same molecule, the “cleavage of pre-miR-17 by IRE1α*” value at IRE1α* (WT) is reported as “dose-dependently inhibits IRE1α* (WT) cleavage of pre-miR-17; also recorded: prevents cleavage of pre-miR-17 by IRE1α* in vitro”. The TXNIP protein accumulation entry in [5] (C57BL/6 islets exposed to ER stress inducers) was “prevents TXNIP protein accumulation”. In addition, the “cytoprotection of pancreatic islets” value in [5] (islets treated with Tm) is “cytoprotective effects”.
